Data on 2 compounds can be found in patent US8236984B2, “Compound and use thereof in the treatment of amyloidosis” (Pentraxin Therapeutics Ltd., priority 2007, dated 2012).

The target of assay [1] is T1, native wild type transthyretin (Homo sapiens, UniProt P02766).
T1 construct: isolated from pooled normal human plasma, was obtained from Scipac; purchased Scipac Ltd, Sittingbourne, Kent, UK; host or cells: pooled normal human plasma
Description: Gel filtration (Superdex 200) of transthyretin-ligand complexes. The class given is binding. Particulars: for A280/A330 ratio of main component eluting at 14.4 ml: 2 nanomoles transthyretin incubated 1 h with 1 μl of 4 mM ligand in DMSO, PBS; for dissociation of ligand from the complex during gel filtration: after 100 volume solvent exchanges. The procedure: 1.3 Gel filtration. Native transthyretin was eluted with either PBS or 150 mM ammonium bicarbonate (pH 7.6) from a Superdex 200 (30×1.0 cm) column, run on an ÅKTA Explorer system, as a UV absorbing peak (A280/A330˜30 to 50:1) with Ve 14.4 ml (FIG. 1). A minor (<5%) higher molecular weight component eluting at 12.5 ml was always seen.
3.1.1. Binding of 4ajm15 and mds84 by transthyretin. One μl (5.3 nmol) of a concentrated (5.3 mM) solution of 4ajm15 in DMSO was added to 3.8 nmol of transthyretin in 100 μl PBS (1.4 fold molar excess of ligand) and incubated at room temperature for 30 min. The sample was chromatographed on Superdex 200, where the transthyretin-4ajm15 complex eluted at 14.4 ml, with a reduced A280/A330 ratio (˜5:1) consistent with binding. A similar result was obtained with transthyretin and 4ajm15 when chromatography was undertaken in volatile ammonium bicarbonate buffer. A similar result was also obtained when mds84 (2 nmol) was first dried into a tube and then resuspended in 5 μl of DMSO before adding the protein solution. In further experiments, 2 nanomoles of native wild type transthyretin (Scipac) were incubated in 55 μl of PBS for 1 h with either 1 μl DMSO (control) or 1 μl of a 4 mM solution in DMSO of mds84 or 4ajm15. Samples were chromatographed on a Superdex 200 column (30×1 cm) in PBS at 0.5 ml/min, with 0.5 ml fractions collected (FIG. 1). […] The full UV spectra of the main components were determined in each case and were consistent with a transthyretin:ligand ratio of ˜1:0.9.

The target in assay [2] is wild type transthyretin (Homo sapiens, UniProt P02766). Description: Displacement of 125I-T4 from transthyretin in whole serum. The class given is binding. Particulars: mean. The source says: 3.2.3.2. Quantitative studies in serum. […] The immunoprecipitate was recovered by centrifugation, washed twice with 0.1 M Tris, 0.1 M NaCl, pH 8.0 and counted.
For assay [3], the target named is L55P variant transthyretin (Homo sapiens, UniProt P02766, L75P). Description: Inhibition of transthyretin aggregation at acidic pH (turbidity at 400 nm). The class given is biochemical. The procedure:
3.3.2 Inhibition of transthyretin aggregation by 4ajm15: In pilot experiments, transthyretin aggregates were formed from wild type transthyretin (3.6 μM) after incubation at acidic pH for 3 d at 37° C. (Colon and Kelly, 1992). The efficacy of 4ajm15 as an inhibitor of transthyretin aggregate formation was then compared with other transthyretin ligand compounds. […] After 30 min at 37° C., the pH was adjusted to pH 4.4 (with 0.2 M sodium acetate buffer pH 4.0), and the ˜1 ml mixtures were incubated unstirred for 3 d at 37° C.
Using the same method the activities of mds84 and 4ajm15 as inhibitors of the aggregation of both wild type transthyretin and the most aggressively aggregating transthyretin variant, L55P, were evaluated in triplicate with both proteins at 3.6 μM and with one (3.6 μM) or 3 equivalents (10.8 μM) of each ligand. Wild type transthyretin was studied at pH 4.4 and L55P at pH 5.0. […] Mean values and standard deviations are shown in Table 2 and in FIG. 4, where results with 1:1 molar ratio are shown cross hatched and 3:1 molar ratio in open bars.

For assay [4], the target named is T2, transthyretin (Homo sapiens, UniProt P02766).
T2 construct: Native tetrameric transthyretin was purified from fractionated human plasma; from tissue; host or cells: human plasma
The assay can be described thus: Analytical ultracentrifugation (sedimentation velocity and equilibrium). The class given is biochemical. The procedure: 4.1. Analytical ultracentrifugation. Sedimentation velocity and equilibrium analytical centrifugation experiments were performed at 20° C. on a Beckman XL-I instrument equipped with an An50Ti rotor in which both absorbance (recorded at a wavelength of 280 nm) and interference scans were recorded simultaneously. Sedimentation analyses were performed at pH 4.4 by incubating the protein (3.6 μM) for 72 h under the conditions of the stagnant transthyretin aggregation-inhibition assay (Petrassi et al., 2000) in presence of the ligand (3.6 μM). […] Sedimentation velocity data were acquired over 8 h at rotor speed of 42,000 rpm in two-sector cells with solution column heights of 12 mm. Absorbance values were modelled as a continuous distribution of sedimentation coefficients, c(s) (Schuck, 2000) using the software SEDFIT (Schuck, 2005). Sedimentation equilibrium measurements of transthyretin bound to the ligand, in the same conditions used for the sedimentation velocity analysis, were acquired using six-sector cells in an AnTi 50 rotor with column heights of 2 mm at rotor speed of 17,000 rpm until equilibrium was reached as shown by the perfect overlay of runs measured at intervals of 5 h. A final run at 42,000 rpm was performed at the end of the experiment to determine the background levels for use in curve fitting. Data analysis was performed using Beckman software provided as an add-on to Origin Version 4.1 (Microcal Inc.) for which the partial specific volume was calculated to be 0.7353 ml/g from the amino acid sequence (Perkins, 1986). The buffer density and viscosity were calculated using the program […] (Laue et al., 1992). […] Sedimentation equilibrium analysis of transthyretin in the presence of the ligand was entirely consistent with a single species of mass 55,784±107.87 Da, in good agreement with the calculated molecular mass of tetrameric wild type transthyretin with bound 4ajm15 (55794 Da). […]

Molecules are shown by their SMILES.

As to `O=C(O)c1ccccc1Nc1cc(Cl)c(OCCCCCCCOc2c(Cl)cc(Nc3ccccc3C(=O)O)cc2Cl)c(Cl)c1` [mds84, 2,2′-(4,4′-(heptane-1,7-diylbis(oxy))bis(3,5-dichloro-4,1-phenylene))bis(azanediyl)dibenzoic acid], in assay [1], the “A280/A330 ratio of main component eluting at 14.4 ml” value is ~4.6 and the “dissociation of ligand from the complex during gel filtration” value was “negligible dissociation”. The compound further yielded an IC50 in assay [2] of 11.9 µM. Moreover, the “Aggregation of transthyretin, Mean (1:1)” value in assay [3] (L55P 3.6 μM, ligand 3.6 μM, pH 5.0) was 17 per cent of control with DMSO alone. The “Aggregation of transthyretin, Mean (3:1)” value in assay [3] (L55P 3.6 μM, ligand 10.8 μM, pH 5.0) is 9.9 per cent of control with DMSO alone.
Take `O=C(O)c1ccccc1Nc1cc(Cl)c(OCCCCCCCCCCCOc2c(Cl)cc(Nc3ccccc3C(=O)O)cc2Cl)c(Cl)c1` [4ajm15, 2,2′-(4,4′-(undecane-1,11-diylbis(oxy))bis(3,5-dichloro-4,1-phenylene))bis(azanediyl)dibenzoic acid]: in assay [1], the “A280/A330 ratio of main component eluting at 14.4 ml” value is reported as ~4.6 and the “dissociation of ligand from the complex during gel filtration” value was “negligible dissociation”. Besides, the IC50 in assay [2] was 27 µM. Further, the “aggregation of L55P in the presence of ligand” value in assay [3] (L55P, pH 5.0, results not shown, in words) was “identical to those with mds84”. In addition, the “sedimentation coefficient of transthyretin with bound ligand” value in assay [4] (3.6 μM protein, 3.6 μM ligand, 72 h 37° C., pH 4.4) is recorded as 3.7 S. In assay [4] (3.6 μM protein, 3.6 μM ligand, pH 4.4), the “mass of single species by sedimentation equilibrium” value is reported as 55,784±107.87 Da. Besides, in assay [4] (72 h at 37° C. and pH 4.4), the “quaternary structure under tetramer-dissociating conditions” value is recorded as “remains tetrameric”.
